Entries after “also recorded” stand apart in the source; their conditions may differ. Like-named read-outs stand apart in the source and are kept apart here.
Assays:
[1] = in vivo
Text: (§1) A. The radiopharmaceutical was sprayed deep into the nose through the nostril as the examinee laid on the scintigraphic table with the head placed in vertical position. B. The resultant radioactivity residing on the olfactory mucosa. C. The region of interest (ROI) placed just beneath the nose-brain barrier on the (cathode Ray Tube) so as to record the penetrating radioactivity. D. Pharyngeal radioactivity escaped from the olfactory pit.
(§2) The mixture was sprayed into the depth of the nose. […] In order to protect the nasal mucosa, vinyl tubing was attached to the end of the nozzle of a sprayer. As the head of an examinee was positioned vertically, so as to allow the droplets to fall onto the olfactory mucosa, the examiner sprayed the mixture deep into one of the nostrils; and
(§3) (2) Assessing the radioisotopic penetration across the NBB The radioisotopic spray side of the head of an examinee was placed against the detector collimator of a gamma camera for 10 minutes. Radioisotopic penetration was defined as the amount of radioactivity recorded in the regions of interest (ROIs) placed over the intracranial space adjoing the cribrijon lamine. The change of the recorded radioactivity in this ROI was analyzed along with that in a remote control brain area.
(§4) Test were performed to determine the penetration potential of radio-pharmaceuticals of ^99m Tc-HMPAO and ^99m Tc-DTPA.

[2] = agent that circulates in the blood; cited from earlier work
[3] = cited from earlier work
[4] = renogrammatic analysis; imaging and dynamic studies of cerebrospinal fluid flow; cited from earlier work
[5] = Radioisotopic penetration across the nose-brain barrier (NBB) after intranasal spray, gamma camera ROI
Text: as §1, §2, §3, §4

Row | SMILES | passage of the nose-brain barrier [1] | passage through the blood-brain barrier [2] | water solubility [3] | extracellular spreading [4] | radioisotopic penetration across the NBB (radioactivity in juxta-cribriform brain ROI) ([5]; healthy person, intranasal spray, 10 minutes gamma camera) | passage of the nose-brain barrier ([5]; overall conclusion, human beings, olfactory pathology and/or healthy control) | time after which radioactivity in the juxta-cribriform brain increased significantly ([5]; person with anosmia, left nostril) [min] | radioisotopic penetration across the NBB (radioactivity in juxta-cribriform brain ROI) ([5]; person with anosmia, left nostril, 148 MBq per 0.2 ml puff (example preparation))
1 | C/C(=N\[O-])[C@@H](C)[N-]CC(C)(C)C[N-][C@H](C)/C(C)=N/O.[O]=[99Tc+3] (racemic) [^99m Tc-HMPAO] | shown not to pass the nose-brain barrier | passes through the blood-brain barrier |  |  |  |  |  | 
2 | O=C([O-])CN(CCN(CC(=O)[O-])CC(=O)[O-])CCN(CC(=O)[O-])CC(=O)[O-].[99Tc+4] [^99m Tc-DTPA, 99mTc-diethylenetriaminepenta-acetic acid] |  |  | water-soluble | spreads extracellularly | the change was statistically insignificant; also recorded: increased but without any statistical significance | shown to pass the nose-brain barrier | 5 | significant increase in radioactivity in the juxta-cribriform lamional brain; also recorded: increased significantly
